Data published in patent publication US20230265151A1, “GIP/GLP1 CO-AGONIST COMPOUNDS” (priority 2020, published 2023).
Like-named read-outs stand apart in the source and are kept apart here.

Columns and labels:
[1] = target: hGLP-1R (Homo sapiens, UniProt P43220); assay: Functional cAMP formation (HTRF) in HEK-293 clonal cells expressing hGLP-1R, 0.1% bovine casein, without or with 1.0% human serum albumin; assay type: cell-based; set-up: expressed in transfected cells; settings: geometric mean, read-out: hGLP-1R EC50, nM (SEM, n)
Method in brief: (§1)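 Readings of the HTRF 665/620 nm ratio, which falls as cAMP rises, were converted to nM cAMP using a standard curve after 30 min peptide exposure at 37° C.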

[2] = target: T1, hGIPR (Homo sapiens, UniProt P48546); assay: Functional cAMP formation (HTRF) in HEK-293 clonal cells expressing hGIPR, 0.1% bovine casein, without or with 1.0% human serum albumin; assay type: cell-based; settings: for EC50: geometric mean, read-out: hGIPR EC50, nM (SEM, n); for Emax: read-out: hGIPR Emax, % ± SEM
T1 construct: expressed in transfected cells
T1 sequence (P48546 22-466): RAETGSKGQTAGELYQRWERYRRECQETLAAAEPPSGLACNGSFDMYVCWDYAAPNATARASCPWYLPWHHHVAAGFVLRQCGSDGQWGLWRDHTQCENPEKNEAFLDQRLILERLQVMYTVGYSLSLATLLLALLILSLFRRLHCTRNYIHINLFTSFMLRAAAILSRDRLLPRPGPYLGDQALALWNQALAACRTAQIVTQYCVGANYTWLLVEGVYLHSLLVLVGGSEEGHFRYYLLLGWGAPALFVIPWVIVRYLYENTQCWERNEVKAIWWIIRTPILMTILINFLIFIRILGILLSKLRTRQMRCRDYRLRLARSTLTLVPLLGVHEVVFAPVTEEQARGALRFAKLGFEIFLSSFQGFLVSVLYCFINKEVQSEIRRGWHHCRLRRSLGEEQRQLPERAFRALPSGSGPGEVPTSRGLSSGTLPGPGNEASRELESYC
Method in brief: as §1

[3] = target: T2, hGCGR (Homo sapiens, UniProt P47871); assay: Functional cAMP formation (HTRF) in HEK-293 clonal cells expressing hGCGR, 0.1% bovine casein, without or with 1.0% human serum albumin; assay type: cell-based; settings: geometric mean, read-out: hGCGR EC50, nM (SEM, n)
T2 construct: expressed in transfected cells
Method in brief: as §1

[4] = target: T3, human Gcg receptor (hGcgR) (Homo sapiens, UniProt P47871); assay: [125I]-Glucagon binding, SPA with membranes of HEK293 cells expressing hGcgR; settings: human GcgR; geometric mean (SEM, n); read-out: Binding Affinity Ki, nM (SEM, n) hGCGR
T3 construct: expressed in transfected cells; crude membranes
Description: Two methods are used for the preparation of crude cell membranes.
Method 1: Frozen cell pellets are lysed on ice in hypotonic buffer containing 50 mM Tris HCl, pH 7.5, and Roche Complete™ Protease Inhibitors with EDTA. […] The homogenate is centrifuged at 4° C. at 1100 × g for 10 minutes. The supernatant is collected and stored on ice while the pellets are resuspended in homogenization buffer and rehomogenized as described above. The homogenate is centrifuged at 1100 × g for 10 minutes. The second supernatant is combined with the first supernatant and centrifuged at 35000 × g for 1 hour at 4° C. The resulting membrane pellet is resuspended in homogenization buffer containing protease inhibitors at approximately 1 to 3 mg/mL, quick frozen in liquid nitrogen and stored as aliquots in a -80° C. freezer until use.
The homogenate is centrifuged at 4° C. at 1800 × g for 15 minutes. The supernatant is collected and stored on ice while the pellets are resuspended in homogenization buffer (without DNAse I) and rehomogenized as described above. The homogenate is centrifuged at 1800 × g for 15 minutes. The second supernatant is combined with the first supernatant and centrifuged an additional time at 1800 × g for 15 minutes. The overall supernatant is then centrifuged at 25000 × g for 30 minutes at 4° C. The resulting membrane pellet is resuspended in homogenization buffer (without DNAse I) containing protease inhibitors at approximately 1 to 3 mg/mL and stored as aliquots in a -80° C. freezer until use.
The human Gcg receptor binding assays are performed using a Scintillation Proximity Assay (SPA) format with wheat germ agglutinin (WGA) beads (Perkin Elmer). The binding buffer contains 25 mM 4-(2-hydroxyethyl)-1-piperazineethanesulfonic acid (HEPES), pH 7.4, 2.5 mM CaCl2, 1 mM MgCh, 0.1% (w/v) bacitracin (Research Products), 0.003% (w/v) Polyoxyethylenesorbitan monolaurate (TWEEN®-20), and Roche Complete™ Protease Inhibitors without EDTA. […] Next, 5 µL serially diluted compound or DMSO is transferred into Corning® 3632 clear bottom assay plates containing 45 µL assay binding buffer or unlabeled Gcg control (non-specific binding or NSB, at 1 µM final). […] Plates are sealed and mixed on a plate shaker (setting 6) for 1 minute and read with a PerkinElmer Trilux MicroBeta® scintillation counter after 12 hours of incubation/settling time at room temperature.
Raw CPM data for concentration curves of peptides, Gcg, GLP-1, or GIP are converted to percent inhibition by subtracting nonspecific binding (binding in the presence of excess unlabeled Gcg, GLP-1, or GIP, respectively) from the individual CPM values and dividing by the total binding signal, also corrected by subtracting nonspecific binding. Data are analyzed using four-parameter (curve maximum, curve minimum, IC50, Hill slope) nonlinear regression routines (Genedata Screener, version 12.0.4, Genedata AG, Basal, Switzerland). […] Values for Ki are reported as the geometric mean, with error expressed as the standard error of the mean (SEM) and n is equal to the number of independent replicates (determined in assays performed on different days). Geometric Means are calculated as follows: […]
The Ki Ratio (Ki for native control peptide/Ki for test compound) at each receptor and each species is calculated. The Ki Ratio is a rapid indication of the apparent affinity of a peptide compared to the native control peptide.
n=⅟x means that only one value out of the total number of replicates (x) is used to express the mean. SEM is only calculated when n=2 or greater non-qualified results exist. Means are expressed as GeoMetric means with the standard error of the mean (SEM) and the number of replicates (n) indicated in parenthesis.

[5] = 0.1% bovine casein and 1.0% human serum albumin, 37° C.
[6] = HEK293, 0.1% bovine casein and 1.0% human serum albumin, 37° C., percent of maximal response to GIP(1-42)NH2
[7] = HEK293, percent of maximal response to GIP(1-42)NH2, 37° C., 0.1% bovine casein, arithmetic mean
[8] = cAMP, incubated at 37° C., 0.1% bovine casein (no human serum albumin)

hGLP-1R, sequence (P43220 24-463): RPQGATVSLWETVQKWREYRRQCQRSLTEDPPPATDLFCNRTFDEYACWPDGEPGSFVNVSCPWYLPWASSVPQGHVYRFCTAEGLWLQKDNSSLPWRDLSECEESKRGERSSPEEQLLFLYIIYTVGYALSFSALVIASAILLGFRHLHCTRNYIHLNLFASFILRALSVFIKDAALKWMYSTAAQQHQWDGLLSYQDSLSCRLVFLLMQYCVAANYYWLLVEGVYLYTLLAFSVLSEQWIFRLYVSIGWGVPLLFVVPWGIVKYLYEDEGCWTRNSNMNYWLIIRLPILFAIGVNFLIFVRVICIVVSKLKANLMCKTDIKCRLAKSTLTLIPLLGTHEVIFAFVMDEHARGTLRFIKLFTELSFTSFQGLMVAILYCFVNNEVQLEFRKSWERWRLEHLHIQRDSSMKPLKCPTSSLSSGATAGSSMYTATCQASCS
T3 sequence (P47871 26-477): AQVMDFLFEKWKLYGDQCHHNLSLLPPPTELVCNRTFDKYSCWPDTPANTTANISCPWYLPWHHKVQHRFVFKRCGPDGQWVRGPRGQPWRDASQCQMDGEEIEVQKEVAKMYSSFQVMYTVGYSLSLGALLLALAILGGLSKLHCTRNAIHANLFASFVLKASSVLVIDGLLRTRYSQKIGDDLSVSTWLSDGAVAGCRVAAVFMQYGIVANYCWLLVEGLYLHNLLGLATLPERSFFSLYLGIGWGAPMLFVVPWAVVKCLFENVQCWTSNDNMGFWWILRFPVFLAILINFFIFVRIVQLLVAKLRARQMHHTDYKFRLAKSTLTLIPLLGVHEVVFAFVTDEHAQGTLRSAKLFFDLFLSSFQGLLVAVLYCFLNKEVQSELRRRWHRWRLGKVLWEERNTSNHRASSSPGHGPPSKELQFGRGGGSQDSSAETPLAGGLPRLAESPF
T2 sequence (P47871 26-477): as above

Structure (SMILES): CC[C@H](C)[C@H](NC(=O)[C@H](CC(C)C)NC(=O)[C@](C)(Cc1ccc(O)cc1)NC(=O)[C@@H](CCC(=O)O)NC(=O)[C@@H](NC(=O)[C@H](Cc1ccccc1)NC(=O)[C@H](CCC(=O)O)NC(=O)C(C)(C)NC(=O)[C@H](CCC(N)=O)NC(=O)[C@H](C)NC(=O)[C@H](CCCCNC(=O)COCCOCCNC(=O)COCCOCCNC(=O)CC[C@H](NC(=O)CCCCCCCCCCCCC(=O)O)C(=O)O)NC(=O)[C@H](CCCN)NC(=O)[C@H](CC(=O)O)NC(=O)[C@H](CC(C)C)NC(=O)[C@](C)(CC(C)C)NC(=O)[C@@H](NC(=O)[C@H](CO)NC(=O)[C@H](Cc1ccncc1)NC(=O)[C@H](CC(=O)O)NC(=O)[C@H](CO)NC(=O)[C@@H](NC(=O)[C@](C)(Cc1ccccc1F)NC(=O)[C@@H](NC(=O)CNC(=O)[C@H](CCC(=O)O)NC(=O)C(C)(C)NC(=O)[C@@H](N)Cc1ccc(O)cc1)[C@@H](C)O)[C@@H](C)O)[C@@H](C)CC)[C@@H](C)CC)C(=O)N[C@@H](CCC(=O)O)C(=O)NCC(=O)N[C@@H](CCCCNC(=O)COCCOCCNC(=O)COCCOCCNC(=O)CC[C@H](NC(=O)CCCCCCCCCCCCC(=O)O)C(=O)O)C(=O)N1CCC[C@H]1C(=O)N[C@@H](CO)C(=O)N[C@@H](CO)C(=O)NCC(=O)N[C@@H](C)C(=O)N1CCC[C@H]1C(=O)N1CCC[C@H]1C(=O)N1CCC[C@H]1C(=O)N[C@@H](CO)C(N)=O [Example 18]
- EC50 [1, 5]: 164 nM
- EC50 [2, 5]: 1.12 nM
- Emax [2, 6]: 86.9 ± 3.59%
- Emax [2, 7]: 97.1 ± 3.28%
- EC50 [2, 8]: 0.0226 nM
- EC50 [3, 5]: > 9950 nM
- EC50 [3, 8]: > 9950 nM
- Ki [4]: > 958 nM

Structure (SMILES): CC[C@H](C)[C@H](NC(=O)[C@H](CC(C)C)NC(=O)[C@](C)(Cc1ccc(O)cc1)NC(=O)[C@@H](CCC(=O)O)NC(=O)[C@@H](NC(=O)[C@H](Cc1ccccc1)NC(=O)[C@H](CCC(=O)O)NC(=O)C(C)(C)NC(=O)[C@H](CCC(N)=O)NC(=O)[C@H](C)NC(=O)[C@H](CCCCNC(=O)COCCOCCNC(=O)COCCOCCNC(=O)CC[C@H](NC(=O)CCCCCCCCCCCCC(=O)O)C(=O)O)NC(=O)[C@H](CCCN)NC(=O)[C@H](CC(=O)O)NC(=O)[C@H](CC(C)C)NC(=O)[C@](C)(CC(C)C)NC(=O)[C@@H](NC(=O)[C@H](CO)NC(=O)[C@H](Cc1ccncc1)NC(=O)[C@H](CC(=O)O)NC(=O)[C@H](CO)NC(=O)[C@@H](NC(=O)[C@](C)(Cc1ccccc1F)NC(=O)[C@@H](NC(=O)CNC(=O)[C@H](CCC(=O)O)NC(=O)C(C)(C)NC(=O)[C@@H](N)Cc1ccc(O)cc1)[C@@H](C)O)[C@@H](C)O)[C@@H](C)CC)[C@@H](C)CC)C(=O)N[C@@H](CCC(=O)O)C(=O)NCC(=O)NCC(=O)N1CCC[C@H]1C(=O)N[C@@H](CO)C(=O)N[C@@H](CO)C(=O)NCC(=O)N[C@@H](C)C(=O)N1CCC[C@H]1C(=O)N1CCC[C@H]1C(=O)N1CCC[C@H]1C(=O)N[C@@H](CO)C(=O)N[C@@H](CCCCNC(=O)COCCOCCNC(=O)COCCOCCNC(=O)CC[C@H](NC(=O)CCCCCCCCCCCCC(=O)O)C(=O)O)C(N)=O [Example 19]
- EC50 [1, 5]: 24.4 nM
- EC50 [1, 8]: 1.34 nM
- EC50 [2, 5]: 0.438 nM
- Emax [2, 6]: 89.7 ± 2.13%
- Emax [2, 7]: 96.6 ± 2.7%
- EC50 [2, 8]: 0.0158 nM
- EC50 [3, 5]: > 9950 nM
- EC50 [3, 8]: > 9950 nM
- Ki [4]: > 966 nM

Structure (SMILES): CC[C@H](C)[C@H](NC(=O)[C@H](CCCN)NC(=O)[C@H](CC(=O)O)NC(=O)[C@H](CC(C)C)NC(=O)[C@](C)(CC(C)C)NC(=O)[C@@H](NC(=O)[C@H](CO)NC(=O)[C@H](Cc1ccncc1)NC(=O)[C@H](CC(=O)O)NC(=O)[C@H](CO)NC(=O)[C@@H](NC(=O)[C@](C)(Cc1ccccc1F)NC(=O)[C@@H](NC(=O)CNC(=O)[C@H](CCC(=O)O)NC(=O)C(C)(C)NC(=O)[C@@H](N)Cc1ccc(O)cc1)[C@@H](C)O)[C@@H](C)O)[C@@H](C)CC)C(=O)N[C@@H](C)C(=O)N[C@@H](CCC(N)=O)C(=O)NC(C)(C)C(=O)N[C@@H](CCC(=O)O)C(=O)N[C@@H](Cc1ccccc1)C(=O)N[C@H](C(=O)N[C@H](CCC(=O)O)C(=O)N[C@@](C)(Cc1ccc(O)cc1)C(=O)N[C@@H](CC(C)C)C(=O)N[C@H](C(=O)N[C@@H](CCCCNC(=O)COCCOCCNC(=O)COCCOCCNC(=O)CC[C@H](NC(=O)CCCCCCCCCCCCC(=O)O)C(=O)O)C(=O)NCC(=O)NCC(=O)N[C@@H](CCCCNC(=O)COCCOCCNC(=O)COCCOCCNC(=O)CC[C@H](NC(=O)CCCCCCCCCCCCC(=O)O)C(=O)O)C(=O)N[C@@H](CO)C(=O)N[C@@H](CO)C(=O)NCC(=O)N[C@@H](C)C(=O)N1CCC[C@H]1C(=O)N1CCC[C@H]1C(=O)N1CCC[C@H]1C(=O)N[C@@H](CO)C(N)=O)[C@@H](C)CC)[C@@H](C)CC [Example 20]
- EC50 [1, 5]: 62.4 nM
- EC50 [2, 5]: 1.66 nM
- Emax [2, 6]: 90.6 ± 0.878%
- Emax [2, 7]: 98.8 ± 3.19%
- EC50 [3, 5]: > 9950 nM
- EC50 [3, 8]: > 9950 nM
- Ki [4]: 139 nM
